Test results from patent US4112097A, “Antihypertensive agents” (Abbott Laboratories, priority 1977, dated 1978).
Where a name gives a salt, the structure may show the parent alone. Read-outs that look alike come from different tables or passages of the source.

Legend:
mice (male and female) = experiment: Acute intravenous toxicity in mice; type: in vivo, mouse; details: mice, administered within twenty minutes following preparation
[1] = Acute intravenous toxicity in mice; type: in vivo, mouse; details: mouse, in vivo, iv, mice male and female, read-out: LD50 (95% Confidence Limits)
[2] = tested on: spontaneously hypertensive (SH) rats; experiment: Antihypertensive effect (blood pressure and heart rate) in spontaneously hypertensive rats; type: in vivo, rat; details: for Percent Change BP (blood pressure) / Percent Change HR (heart rate): N=4, mean
Protocol: The screening is conducted as follows:
Male spontaneously hypertensive (SH) rats are trained to be restrained in a wire mesh cylinder in a warming box, at least two training cycles being conducted before testing. The rats are warmed for about 1/2 hour period to blood pressure measurement, the warming box being maintained at a constant temperature of 36° C.
An occluding cuff attached to the programed sphymomanometer is placed near the base of the tail of each rat and the pressure in the cuff is increased automatically from 0 to 250 milimeters of mercury (mm Hg) at a rate of 10 mm Hg per second. The total time for each cycle of inflation and deflation of the cuff is 50 seconds and the interval between cycles is one minute.
A photocell is placed distal to the cuff to record the pulses due to forward motion of blood flow with each heart beat. As the pressure in the cuff increases, the pulse disappears completely at a point where cuff pressure equals or exceeds the arterial blood pressure and it reappears during deflation at approximately the same pressure. Five interference free signals for deflation are recorded for each rat. Rats with a blood pressure of 180 mm Hg or more during the control period are used in the study. Blood pressure and heart rate readings are recorded on a model VII Grass polygraph at intervals of 1, 3, 5 and 24 hours after administration of the drug.

physchem = details: water
Protocol: The water in the filtrate was removed in vacuo and the residue weighed and found to be 16.7 mg.

[3] = background statement on prazosin; cited from earlier work
[4] = cited from earlier work
[5] = intraperitoneal 0.3 mg/kg, 1 hour
[6] = intraperitoneal 0.3 mg/kg, 3 hours
[7] = intraperitoneal 0.3 mg/kg, 5 hours
[8] = intraperitoneal 0.3 mg/kg, 24 hours
[9] = intraperitoneal 1 mg/kg, 1 hour
[10] = intraperitoneal 1 mg/kg, 3 hours
[11] = intraperitoneal 1 mg/kg, 5 hours
[12] = intraperitoneal 1 mg/kg, 24 hours
[13] = intraperitoneal 3 mg/kg, 1 hour
[14] = intraperitoneal 3 mg/kg, 3 hours
[15] = intraperitoneal 3 mg/kg, 5 hours
[16] = intraperitoneal 3 mg/kg, 24 hours
[17] = intraperitoneal 10 mg/kg, 1 hour
[18] = intraperitoneal 10 mg/kg, 3 hours
[19] = intraperitoneal 10 mg/kg, 5 hours
[20] = intraperitoneal 10 mg/kg, 24 hours
[21] = intraperitoneal 30 mg/kg, 1 hour
[22] = intraperitoneal 30 mg/kg, 3 hours
[23] = intraperitoneal 30 mg/kg, 5 hours
[24] = intraperitoneal 30 mg/kg, 24 hours

With `COc1cc2nc(N3CCN(C(=O)C4CCCO4)CC3)nc(N)c2cc1OC` (stereo not shown) [2[4-(Tetrahydro-2-Furoyl)Piperazinyl]-4-Amino-6,7-Dimethoxyquinazoline Hydrochloride] the “toxicity in comparison to the compound of Formula I” value (mice (male and female)) was “significantly lower toxicity than the compound of Formula I”, the LD50 ([1]; injected 24 hours after formulation (B)) was 253 mg/kg and the LD50 ([1]; injected immediately after formulation (A)) was 259 mg/kg. The “duration of the effect (decrease in blood pressure)” value ([2]; intraperitoneal 30 mg./kg.) was “greater than 24 hours”, the “fall in blood pressure” value ([2]; oral, 3 and 10 mg./kg., up to approximately) was at most 40% and the solubility (physchem) was 590 mg/mL.
For `COc1cc2nc(N3CCN(C(=O)c4ccco4)CC3)nc(N)c2cc1OC` [Formula I, 2-[4-(2-furoyl)-1-piperazine-1-yl]-4-amino-6,7-dimethoxyquinazoline, reference compound], the “Percent Change BP (blood pressure)” value [2, 5] was -20.8%, the “Percent Change HR (heart rate)” value [2, 5] was -2.5% and the “Percent Change BP (blood pressure)” value [2, 6] was -18.3%. For the same molecule, the “Percent Change HR (heart rate)” value [2, 6] was -0.5%, the “Percent Change BP (blood pressure)” value [2, 7] was -13.8% and the “Percent Change HR (heart rate)” value [2, 7] was -12.0%. The “Percent Change BP (blood pressure)” value [2, 8] was -4.3%, the “Percent Change HR (heart rate)” value [2, 8] was -5.0% and the “Percent Change BP (blood pressure)” value [2, 9] was -20.0%. The “Percent Change HR (heart rate)” value [2, 9] was 2.8%, the “Percent Change BP (blood pressure)” value [2, 10] was -15.3% and the “Percent Change HR (heart rate)” value [2, 10] was 1.8%. The “Percent Change BP (blood pressure)” value [2, 11] was -13.5%, the “Percent Change HR (heart rate)” value [2, 11] was 10.5% and the “Percent Change BP (blood pressure)” value [2, 12] was 3.5%. The “Percent Change HR (heart rate)” value [2, 12] was 12.8%, the “Percent Change BP (blood pressure)” value [2, 13] was -45.0% and the “Percent Change HR (heart rate)” value [2, 13] was 0.3%. The “Percent Change BP (blood pressure)” value [2, 14] was -31.5%, the “Percent Change HR (heart rate)” value [2, 14] was -6.5% and the “Percent Change BP (blood pressure)” value [2, 15] was -26.3%. The “Percent Change HR (heart rate)” value [2, 15] was -17.0%, the “Percent Change BP (blood pressure)” value [2, 16] was -2.3% and the “Percent Change HR (heart rate)” value [2, 16] was -4.0%. The “Percent Change BP (blood pressure)” value [2, 17] was -41.0%, the “Percent Change HR (heart rate)” value [2, 17] was 5.8% and the “Percent Change BP (blood pressure)” value [2, 18] was -34.0%. For the same molecule, the “Percent Change HR (heart rate)” value [2, 18] was 14.8%, the “Percent Change BP (blood pressure)” value [2, 19] was -27.0% and the “Percent Change HR (heart rate)” value [2, 19] was 7.3%. For the same molecule, the “Percent Change BP (blood pressure)” value [2, 20] was -13.0%, the “Percent Change HR (heart rate)” value [2, 20] was -7.5% and the “Percent Change BP (blood pressure)” value [2, 21] was -43.3%. For the same molecule, the “Percent Change HR (heart rate)” value [2, 21] was -1.8%, the “Percent Change BP (blood pressure)” value [2, 22] was -48.5% and the “Percent Change HR (heart rate)” value [2, 22] was 4.8%. For the same molecule, the “Percent Change BP (blood pressure)” value [2, 23] was -55.5%, the “Percent Change HR (heart rate)” value [2, 23] was 3.5% and the “Percent Change BP (blood pressure)” value [2, 24] was -24.5%. The “Percent Change HR (heart rate)” value [2, 24] was -6.5%, the “Percent Change BP (blood pressure)” value ([2]; oral 0.03 mg/kg, 1 hour) was -4.5% and the “Percent Change HR (heart rate)” value ([2]; oral 0.03 mg/kg, 1 hour) was 4.8%. The “Percent Change BP (blood pressure)” value ([2]; oral 0.03 mg/kg, 3 hours) was -0.8%, the “Percent Change HR (heart rate)” value ([2]; oral 0.03 mg/kg, 3 hours) was -9.3% and the “Percent Change BP (blood pressure)” value ([2]; oral 0.03 mg/kg, 5 hours) was -11.5%. For the same molecule, the “Percent Change HR (heart rate)” value ([2]; oral 0.03 mg/kg, 5 hours) was -9.8%, the “Percent Change BP (blood pressure)” value ([2]; oral 0.03 mg/kg, 24 hours) was 1.3% and the “Percent Change HR (heart rate)” value ([2]; oral 0.03 mg/kg, 24 hours) was -2.0%. For the same molecule, the “Percent Change BP (blood pressure)” value ([2]; oral 0.1 mg/kg, 1 hour) was -9.8%, the “Percent Change HR (heart rate)” value ([2]; oral 0.1 mg/kg, 1 hour) was 13.5% and the “Percent Change BP (blood pressure)” value ([2]; oral 0.1 mg/kg, 3 hours) was -17.5%. The “Percent Change HR (heart rate)” value ([2]; oral 0.1 mg/kg, 3 hours) was 18.3%, the “Percent Change BP (blood pressure)” value ([2]; oral 0.1 mg/kg, 5 hours) was -22.8% and the “Percent Change HR (heart rate)” value ([2]; oral 0.1 mg/kg, 5 hours) was 1.5%. The “Percent Change BP (blood pressure)” value ([2]; oral 0.1 mg/kg, 24 hours) was -1.3%, the “Percent Change HR (heart rate)” value ([2]; oral 0.1 mg/kg, 24 hours) was 3.5% and the “Percent Change BP (blood pressure)” value ([2]; oral 0.3 mg/kg, 1 hour) was -32.8%. The “Percent Change HR (heart rate)” value ([2]; oral 0.3 mg/kg, 1 hour) was -5.5%, the “Percent Change BP (blood pressure)” value ([2]; oral 0.3 mg/kg, 3 hours) was -33.8% and the “Percent Change HR (heart rate)” value ([2]; oral 0.3 mg/kg, 3 hours) was -5.0%. For the same molecule, the “Percent Change BP (blood pressure)” value ([2]; oral 0.3 mg/kg, 5 hours) was -30.0%, the “Percent Change HR (heart rate)” value ([2]; oral 0.3 mg/kg, 5 hours) was -13.8% and the “Percent Change BP (blood pressure)” value ([2]; oral 0.3 mg/kg, 24 hours) was -12.3%. The “Percent Change HR (heart rate)” value ([2]; oral 0.3 mg/kg, 24 hours) was 3.0%, the “Percent Change BP (blood pressure)” value ([2]; oral 1 mg/kg, 1 hour) was -31.8% and the “Percent Change HR (heart rate)” value ([2]; oral 1 mg/kg, 1 hour) was 2.0%. For the same molecule, the “Percent Change BP (blood pressure)” value ([2]; oral 1 mg/kg, 3 hours) was -17.8%, the “Percent Change HR (heart rate)” value ([2]; oral 1 mg/kg, 3 hours) was 6.8% and the “Percent Change BP (blood pressure)” value ([2]; oral 1 mg/kg, 5 hours) was -19.5%. For the same molecule, the “Percent Change HR (heart rate)” value ([2]; oral 1 mg/kg, 5 hours) was -1.0%, the “Percent Change BP (blood pressure)” value ([2]; oral 1 mg/kg, 24 hours) was -2.3% and the “Percent Change HR (heart rate)” value ([2]; oral 1 mg/kg, 24 hours) was 10.0%. The “Percent Change BP (blood pressure)” value ([2]; oral 3 mg/kg, 1 hour) was -19.3%, the “Percent Change HR (heart rate)” value ([2]; oral 3 mg/kg, 1 hour) was 0.5% and the “Percent Change BP (blood pressure)” value ([2]; oral 3 mg/kg, 3 hours) was -19.8%. The “Percent Change HR (heart rate)” value ([2]; oral 3 mg/kg, 3 hours) was 11.5%, the “Percent Change BP (blood pressure)” value ([2]; oral 3 mg/kg, 5 hours) was -20.5% and the “Percent Change HR (heart rate)” value ([2]; oral 3 mg/kg, 5 hours) was 1.5%. The “Percent Change BP (blood pressure)” value ([2]; oral 3 mg/kg, 24 hours) was 5.3%, the “Percent Change HR (heart rate)” value ([2]; oral 3 mg/kg, 24 hours) was 6.0% and the “Percent Change BP (blood pressure)” value ([2]; oral 10 mg/kg, 1 hour) was -23.8%. The “Percent Change HR (heart rate)” value ([2]; oral 10 mg/kg, 1 hour) was 3.0%, the “Percent Change BP (blood pressure)” value ([2]; oral 10 mg/kg, 3 hours) was -22.3% and the “Percent Change HR (heart rate)” value ([2]; oral 10 mg/kg, 3 hours) was 12.3%. The “Percent Change BP (blood pressure)” value ([2]; oral 10 mg/kg, 5 hours) was -22.0%, the “Percent Change HR (heart rate)” value ([2]; oral 10 mg/kg, 5 hours) was -0.8% and the “Percent Change BP (blood pressure)” value ([2]; oral 10 mg/kg, 24 hours) was -2.3%. The “Percent Change HR (heart rate)” value ([2]; oral 10 mg/kg, 24 hours) was 23.3%, the “Percent Change BP (blood pressure)” value ([2]; oral 30 mg/kg, 1 hour) was -34.0% and the “Percent Change HR (heart rate)” value ([2]; oral 30 mg/kg, 1 hour) was -3.8%. For the same molecule, the “Percent Change BP (blood pressure)” value ([2]; oral 30 mg/kg, 3 hours) was -31.3%, the “Percent Change HR (heart rate)” value ([2]; oral 30 mg/kg, 3 hours) was -11.5% and the “Percent Change BP (blood pressure)” value ([2]; oral 30 mg/kg, 5 hours) was -29.3%. The “Percent Change HR (heart rate)” value ([2]; oral 30 mg/kg, 5 hours) was -14.8%, the “Percent Change BP (blood pressure)” value ([2]; oral 30 mg/kg, 24 hours) was -14.5% and the “Percent Change HR (heart rate)” value ([2]; oral 30 mg/kg, 24 hours) was -1.5%. For the same molecule, the solubility in words [3] was “very low solubility”, the “fall in blood pressure in words” value ([4]; The Lancet, May 10, 1975) was “profound fall in blood pressure” and the toxicity in words ([4]; The Lancet, May 10, 1975) was “significant toxicity”. For the same molecule, the “collapse with loss of consciousness” value ([4]; following use of the drug, The Lancet and British Medical Journal, June 28, 1975) was “Sudden collapse with loss of consciousness for periods ranging from a few minutes to one hour”.
